Measurements taken from patent publication US20120329117A1, “CONTROL OF CONTAMINANT MICROORGANISMS IN FERMENTATION PROCESSES WITH SYNERGISTIC FORMULATIONS CONTAINING STABILIZED CHLORINE DIOXIDE AND PEROXIDE COMPOUND” (E.I. DU PONT DE NEMOURS AND COMPANY, priority 2010, published 2012).

System: L. brevis
Assay: Reduction of lactic acid bacteria in inoculated corn mash (plate count on MRS agar)
Format: cell-based, Lactobacillus brevis
Settings: corn mash inoculated with L. brevis
Method: In this example, corn mash was obtained from a commercial ethanol plant immediately after the liquefaction step. The mash was cooled to room temperature and then inoculated with L. brevis cultures prepared as was described in Example 1. 50 ml portions of the inoculated corn mash were treated with SCD, HP and a combination of both as follows:
Following treatment, the samples were incubated for 2 hours in a shaking incubator. Surviving bacteria in each sample was enumerated by plating serial dilutions of each on MRS agar plates (available from Difco Laboratories, Inc., Sparks, Md.) and further incubating the plates for 48 hours at 32° C.

Structure (SMILES): OO [HP, hydrogen peroxide]
- Viable cells after 2 hours (50 ppm HP): 7.48 Log CFU/g
- Viable cells after 2 hours (100 ppm HP): 5.97 Log CFU/g
